# Columns and labels:
# Assay in all cases: Antibacterial assay, microtitration MIC (Test A)
# Assay type in all cases: cell-based
# H. influenzae HI-3542 = details: strain HI-3542; for MIC: Haemophilus influenzae, HI3542, Gram Negative Bacteria, read-out: Minimum Inhibitory Concentrations H. influenzae HI-3542
# Description: (§1) The compounds of the present invention were tested against an assortment of Gram-negative and Gram-positive organisms using standard microtitration techniques (Cohen et. al., Antimicrob., 1985;28:766; Heifetz, et. al., Antimicrob., 1974;6:124). The results of the evaluation are shown in Tables 1A and B, wherein “-” means no data.
# M. catarrhalis BC-3531 = details: strain BC-3531; for MIC: Moraxella catarrhalis, BC3531, Gram Negative Bacteria, read-out: Minimum Inhibitory Concentrations M. catarrhalis BC-3531
# Description: as §1
# E. coli EC-2549 = details: strain EC-2549; for MIC: Escherichia coli, EC2549, Gram Negative Bacteria, read-out: Minimum Inhibitory Concentrations E. coli EC-2549
# Description: as §1
SMILES,MIC (H. influenzae HI-3542),MIC (M. catarrhalis BC-3531),MIC (E. coli EC-2549),Minimum Inhibitory Concentrations H. influenzae HI-3542 (H. influenzae HI-3542; Gram Negative Bacteria),Minimum Inhibitory Concentrations M. catarrhalis BC-3531 (M. catarrhalis BC-3531; Gram Negative Bacteria),Minimum Inhibitory Concentrations E. coli EC-2549 (E. coli EC-2549; Gram Negative Bacteria)
O=C(O)c1cn(C2CC2)c2c(Cl)c(N3C[C@@H](CO)[C@@H](CO)C3)c(F)cc2c1=O [drawing 382],0.004 µg/mL,0.03 µg/mL,0.06 µg/mL,–,–,–
O=C(O)c1cn(C2CC2)c2c(Cl)c(N3CCC(C(O)C4(CO)CC4)C3)c(F)cc2c1=O (stereo not drawn) [drawing 321],0.008 µg/mL,0.016 µg/mL,0.06 µg/mL,–,–,–
COC[C@@H]1CN(c2c(F)cc3c(=O)c(C(=O)O)cn(C4CC4)c3c2C)C[C@@H]1CO [drawing 389],0.008 µg/mL,0.015 µg/mL,0.06 µg/mL,–,–,–
O=C(O)c1cn(C2CC2)c2nc(N3CCC(C(O)C(F)F)C3)c(F)cc2c1=O (stereo not drawn) [drawing 314],0.008 µg/mL,0.016 µg/mL,0.125 µg/mL,–,–,–
Cc1c(N2CC(C)(CO)C(C)(CO)C2)c(F)cc2c(=O)c(C(=O)O)cn(C3CC3)c12 (stereo not drawn) [drawing 438],–,–,–,0.125 µg/mL,0.25 µg/mL,2 µg/mL
COc1c(N2CC(CO)C3(CC3)C2)c(F)cc2c(=O)c(C(=O)O)cn(C3CC3)c12 (stereo not drawn) [drawing 420],0.008 µg/mL,0.008 µg/mL,0.06 µg/mL,–,–,–
Nc1nc(-n2cc(C(=O)O)c(=O)c3cc(F)c(N4C[C@@H]5CC[C@@H](O)[C@@H]5C4)c(Cl)c32)c(F)cc1F [drawing 444],0.03 µg/mL,0.03 µg/mL,0.25 µg/mL,–,–,–
Cc1c(N2CC(C(C)O)C(C)(C)C2)c(F)cc2c(=O)c(C(=O)O)cn(C3CC3)c12 (stereo not drawn) [drawing 423],0.06 µg/mL,0.015 µg/mL,0.25 µg/mL,–,–,–
Cc1c(N2CC(CO)C(C)(C)C2)c(F)cc2c(=O)c(C(=O)O)cn(C3CC3)c12 (stereo not drawn) [drawing 418],0.015 µg/mL,0.008 µg/mL,0.06 µg/mL,–,–,–
COc1c(N2CCC(CO)(CO)C2)c(F)cc2c(=O)c(C(=O)O)cn(C3CC3)c12 [drawing 375],0.15 µg/mL,0.0125 µg/mL,0.5 µg/mL,–,–,–
CC(=O)O[C@@H]1CC[C@H]2CN(c3c(F)cc4c(=O)c(C(=O)O)cn(-c5nc(N)c(F)cc5F)c4c3Cl)C[C@H]21 [drawing 445],0.03 µg/mL,0.06 µg/mL,0.5 µg/mL,–,–,–
Nc1nc(-n2cc(C(=O)O)c(=O)c3cc(F)c(N4CCC(C(O)C(F)(F)F)C4)c(Cl)c32)c(F)cc1F (stereo not drawn) [drawing 333],0.06 µg/mL,0.125 µg/mL,1 µg/mL,–,–,–
Nc1nc(-n2cc(C(=O)O)c(=O)c3cc(F)c(N4CCC(C(O)CO)C4)cc32)c(F)cc1F (stereo not drawn) [drawing 325],0.004 µg/mL,0.015 µg/mL,0.06 µg/mL,–,–,–
COC[C@H]1CN(c2c(F)cc3c(=O)c(C(=O)O)cn(C4CC4)c3c2C)C[C@H]1CO [drawing 387],0.008 µg/mL,0.015 µg/mL,0.06 µg/mL,–,–,–

# More lines, in order of falling MIC (H. influenzae HI-3542), values ahead:
MIC (H. influenzae HI-3542),MIC (M. catarrhalis BC-3531),MIC (E. coli EC-2549),SMILES,Minimum Inhibitory Concentrations H. influenzae HI-3542 (H. influenzae HI-3542; Gram Negative Bacteria),Minimum Inhibitory Concentrations M. catarrhalis BC-3531 (M. catarrhalis BC-3531; Gram Negative Bacteria),Minimum Inhibitory Concentrations E. coli EC-2549 (E. coli EC-2549; Gram Negative Bacteria)
0.16 µg/mL,0.03 µg/mL,0.125 µg/mL,CC(O)(CO)C1CCN(c2c(F)cc3c(=O)c(C(=O)O)cn(C4CC4)c3c2Cl)C1 (stereo not drawn) [drawing 339],–,–,–
0.06 µg/mL,0.06 µg/mL,0.5 µg/mL,COc1c(N2C[C@@H]3CC[C@@](O)(CO)[C@@H]3C2)c(F)cc2c(=O)c(C(=O)O)cn(C3CC3)c12 [drawing 449],–,–,–
0.03 µg/mL,0.03 µg/mL,0.125 µg/mL,COc1c(N2CCC(C)(C(O)CC(F)(F)F)C2)c(F)cc2c(=O)c(C(=O)O)cn(C3CC3)c12 (stereo not drawn) [drawing 374],–,–,–
0.015 µg/mL,0.06 µg/mL,0.25 µg/mL,COc1c(N2C[C@@H]3C[C@@H](O)[C@@H](O)[C@@H]3C2)c(F)cc2c(=O)c(C(=O)O)cn(C3CC3)c12,–,–,–
0.008 µg/mL,0.125 µg/mL,0.25 µg/mL,Nc1nc(-n2cc(C(=O)O)c(=O)c3cc(F)c(N4C[C@@H](O)[C@@H](O)C4)nc32)c(F)cc1F [drawing 380],–,–,–
0.004 µg/mL,0.008 µg/mL,0.06 µg/mL,O=C(O)c1cn(C2CC2)c2c(Cl)c(N3CC(CO)C4(CC4)C3)c(F)cc2c1=O (stereo not drawn) [drawing 421],–,–,–
0.002 µg/mL,0.004 µg/mL,0.03 µg/mL,COc1c(N2CCC(CO)C2)c(F)cc2c(=O)c(C(=O)O)cn(C3CC3)c12 (stereo not drawn) [drawing 309],–,–,–
0.001 µg/mL,0.015 µg/mL,0.06 µg/mL,Cc1c(N2C[C@@H](CO)[C@@H](CO)C2)c(F)cc2c(=O)c(C(=O)O)cn(C3CC3)c12 [drawing 386],–,–,–

# From patent US20050107423A1, “Quinolone antibacterial agents” (priority 2003, published 2005)
